Experimental data reported in ChEMBL document CHEMBL3507680, “University of Dundee, Gates Library screen for HepG2 cell viability”.

test: Human HepG2 cell viability assay in 384 well format; format: toxicity, cell-based; design: dose 125 nL, time 70.5 hour; concentration not given beside the values; conditions: HepG2 cells, read-out: Inhibition

SMILES	cytotoxicity at 70.5 h [%]
CC(C)C[C@H](NC(=O)NC1CCS(=O)(=O)C1)C(=O)NCc1cccnc1 (some centres undefined)	-16
CN1CCN(C(=O)c2cc3occc3n2Cc2ccccc2F)CC1	-10.6
Cc1cccc(NC(=O)C2(n3cnnn3)CCCCC2)n1	-26.9
COc1coc(C(=O)Nc2ccncc2)cc1=O	-12.7
Cc1nc(C)c(CC(=O)NCc2ccc(F)cc2)s1	-11.4
COc1ccccc1NC(=O)Cn1c(=O)nc(N)c2cc(C)sc21	-16.1
O=C(c1cc(=O)c(OCc2ccccc2F)co1)N1CCCC1	1.91
COC(=O)c1cc2c(=O)n(C3CC3)ccc2nc1C	2.32
CC(C)NC(=O)c1csc(NC2CC2)n1	0.174
CCCSc1nn(CCN(C)C)c2nc3sc(C)c(CC)c3c(=O)n12	32.5
CCCSc1nn(CCCN(C)C)c2nc3sc(C)c(CC)c3c(=O)n12	11.5
COc1ccc2cnn(CC(=O)NCC3CCCO3)c(=O)c2c1OC (centres undefined)	-3.4
CC(C)Nc1nc(C(=O)Nc2ccccn2)cs1	-13.8
O=C1CC(c2ccncc2)c2c(c(C(=O)O)cn2-c2ccccc2)N1 (centres undefined)	-8.17
CCc1c(C)sc2c1c(N)nc(=O)n2CCN1CCOCC1	9.55
Cc1n[nH]c2c1C(c1ccc3c(c1)OCCO3)SCC(=O)N2 (centres undefined)	-0.607
CC1CCN(c2ccc(=O)n(CC(=O)NCCc3ccccc3)n2)CC1	5.19
CN1CCN(C(=O)c2cc3sccc3n2Cc2ccc(Cl)cc2)CC1	-5.06
CC(=O)N1CCN(CCNC(=O)c2nc3ccccc3c(=O)[nH]2)CC1	-7.43
CC1CC(=O)c2cc(C(=O)N3CCc4ccccc4C3)c(=O)[nH]c2C1 (centres undefined)	-2.25
Cc1n[nH]c2nc(-c3cccc(Cl)c3)cc(C(=O)O)c12	9.1
CN1CCN(C(=O)c2cc3sccc3n2Cc2ccccc2Cl)CC1	-6.69
Cc1nn(C)cc1C1CC(=O)Nc2c1cnn2C(C)(C)C (centres undefined)	-4.68
O=C(CC1CC1)N1CCC2(CC1)CN(CCn1cccn1)C(=O)CO2	-4.82
O=S(=O)(C1CC1)N1CCc2ncc(Cn3cncn3)n2CC1	-3.06
CN(C)Cc1nn(C)c2c1CN(C(=O)Nc1cccc(F)c1)C2	-2.91
CN(C)Cc1nn(C)c2c1CN(C(=O)Nc1ccc(F)cc1)C2	-3.55

SMILES	cytotoxicity at 70.5 h [%]
NC(=O)N1CC[C@H]2CO[C@H](CNC(=O)c3ccnnc3)[C@H]2C1	-0.828
O=C1[C@@H]2CCN(CC3CCOCC3)C[C@@H]2OCCN1c1ccccc1	1.16
O=C(c1ncn2c1CNS(=O)(=O)c1ccccc1-2)N1CCCCC1	-2.38
CCN1CC[C@]2(CN(C(=O)[C@H]3CCCO3)C[C@H]2c2ccccc2)C1=O	-1.85
CC(C)c1nc(-c2cc(C(=O)NCCCO)c3ccccn23)cs1	-3.65
N#Cc1cccc(CN2CCO[C@@H]3CNC[C@@H]32)c1	-1.26
CCn1ncc2c1CN(C(=O)c1ccc3c(c1)OCO3)CC2COC (centres undefined)	-1.24
CN(C)CCOCc1nnc2n1CCN(c1cnccn1)CC2	12.4
CC(C)c1nc(-c2cc(C(=O)O)c3ccccn23)cs1	10.6
CCS(=O)(=O)N1Cc2c(Cn3ccnc3)nn(C)c2C1	-2.09
O=C(NC1CC1)N1CCOC2(CCCN(c3cccc(F)c3)C2)C1 (centres undefined)	-3.8
N#Cc1cccc(N2CCCC3(CN(C(=O)[C@H]4CCCO4)CCO3)C2)c1 (some centres undefined)	-0.958
CCN(CC)Cc1nc2c(o1)CN(C(=O)c1ccc3ncccc3c1)C2	-4.56
CCC(C)Nc1ccc2c(c1)C1(CCOCC1)C(=O)N2c1ccccc1 (centres undefined)	-7.71
COc1cccc(CC(=O)N2CCc3nc(C(N)=O)sc3CC2)c1	-8.31
N#Cc1cccc(N2CCCC3(CN(C(=O)c4ccc[nH]4)CCO3)C2)c1 (centres undefined)	-5.89
CCc1cnc(N2C[C@H]3CN(Cc4ccc(OC)cc4)C(=O)[C@H]3C2)nc1	-2.79
N#Cc1cccc(N2CCOCC3(CCCN(C(=O)NC4CC4)C3)C2)c1 (centres undefined)	-6.43
COCCN1C(=O)C2(CCC(C(=O)Nc3ccccn3)CC2)N=C1C (centres undefined)	-11.2
Cn1ccnc1C(=O)NCc1cc(=O)n2c(n1)CN(CC1CC1)CCC2	-4.68
CN1C(=O)CC2(CCN(Cc3cnn(C)c3)CC2)c2ccccc21	-2.77
CNC(=O)[C@@H]1COC[C@H]2CN(C(=O)c3ccc(OC)cc3)C[C@H]21	-2.56
Cn1cc(CN2C[C@@H](N3CCCC3=O)[C@H]3OCCC[C@H]32)cn1	-3.55
CNC(=O)[C@@H]1COC[C@H]2CN(C(=O)c3cccc(OC)c3)C[C@H]21	9.55
Cn1cc(CN2CCC3(CC2)CC(=O)Nc2ccccc23)cn1	-1.78
c1cnc(N2CC[C@@H]3[C@@H]2CCN3Cc2cccs2)nc1	-4.98
Cc1cccc(CN2C[C@@H]3OCCN(C)[C@@H]3C2)n1	-11.9

SMILES	cytotoxicity at 70.5 h [%]
CCS(=O)(=O)N1CCc2ncnc(OC)c2CC1	-5.9
c1ccc(CN2CCOC3CNCC[C@H]32)cc1 (some centres undefined)	13.7
CCOCC1CN(C(=O)c2cc(C)oc2C)Cc2c1cnn2C (centres undefined)	-0.121
CC(C)NC(=O)[C@@H]1CN(Cc2ccc3c(c2)OCO3)C[C@H]2OCC[C@H]21	-2.81
Cn1nc(CNC(=O)CC#N)c2c1CN(CC1CC1)CC2	-3.91
Cc1ccccc1N1CC2(CCCCN2CC2CC2)CC1=O (centres undefined)	-3.78
Cc1cnc(N2CCOC3(CCCN(C)C3)C2)nc1 (centres undefined)	-10.1
COc1cccc(CN2CCc3nc(C(N)=O)sc3CC2)c1	-7.05
O=S(=O)(C1CC1)N1CCC2(CN(c3ccccn3)C2)C1	-7.95
CCS(=O)(=O)N1CCC2(CN(c3cccc(C)n3)C2)C1	-4.08
CC(C)C(=O)N1CCC2(CCN2CC2CC2)C1 (centres undefined)	-4.62
CC(C)C(=O)N1CCC2(CN(CC3CCCC3)C2)C1	-5.09
Cc1ccc(CN2C[C@@H]3CN(c4ncc(F)cn4)C[C@@H]3C2)cc1	-1.01
c1ccc(CN2Cc3[nH]nc(COCC4CC4)c3C2)nc1	-4.63
CN1CCc2c(c(COc3cncnc3)nn2CC2CC2)C1	5.89
COCCN1CCOCC12CCN(Cc1ccn(C)n1)CC2	-5.01
Cc1nc(Cn2c3c(ccc2=O)CCN(CC2CCC2)CC3)cs1	-9.15
COCCN1CCc2ccc(=O)n(Cc3csc(C)n3)c2CC1	-6.35
CCn1cc2c(n1)C(COC)CN(c1ccc(C)nn1)C2 (centres undefined)	-7.13
c1cnc(N2CCC3(CC2)CC(NCC2CC2)c2ccccc23)nc1 (centres undefined)	11.4
Fc1cnc(N2C[C@H]3CN(Cc4cccc(F)c4)C[C@H]3C2)nc1	-13.6
c1ccc(CNCC2Cn3nnc(-c4ccncc4)c3CO2)nc1 (centres undefined)	-4.04
CNC(=O)[C@H]1C[C@@H]2CN(Cc3cccnc3OC)C[C@@H]2N1C(C)C	-7.89
CN(C)CCN1CCCC12CCCN(Cc1ccco1)C2 (centres undefined)	7.41
COc1ccccc1CCNC(=O)C1CCC(Cn2cnnn2)CC1 (centres undefined)	-18.1
